According to PubChem BioAssay (NCI):
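A five-concentration, 48-hour dose response in 96-well plates underlies each endpoint, interpolated linearly between surrounding concentrations. TGI: total growth inhibition.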

What was measured:
Experiment in all cases: NCI tumour cell line growth inhibition, 48 h
786-0 renal = system: 786-0 renal
A498 renal = system: A498 renal
A549 NSCLC = system: A549 NSCLC
ACHN renal = system: ACHN renal
CAKI-1 renal = system: CAKI-1 renal
CCRF-CEM leukemia = system: CCRF-CEM leukemia
DLD-1 colon = system: DLD-1 colon
DMS 114 small cell lung = system: DMS 114 small cell lung
DMS 273 small cell lung = system: DMS 273 small cell lung
EKVX NSCLC = system: EKVX NSCLC
HCC-2998 colon = system: HCC-2998 colon
HCT-116 colon = system: HCT-116 colon
HCT-15 colon = system: HCT-15 colon
HL-60(TB) leukemia = system: HL-60(TB) leukemia
HOP-92 NSCLC = system: HOP-92 NSCLC
HT29 colon = system: HT29 colon
IGROV1 ovarian = system: IGROV1 ovarian
K-562 leukemia = system: K-562 leukemia
KM20L2 colon = system: KM20L2 colon
LOX IMVI melanoma = system: LOX IMVI melanoma
LXFL 529 NSCLC = system: LXFL 529 NSCLC
M14 melanoma = system: M14 melanoma
M19-MEL melanoma = system: M19-MEL melanoma
MALME-3M melanoma = system: MALME-3M melanoma
MOLT-4 leukemia = system: MOLT-4 leukemia
NCI-H226 lung = system: NCI-H226 lung
NCI-H23 lung = system: NCI-H23 lung
NCI-H460 lung = system: NCI-H460 lung
NCI-H522 lung = system: NCI-H522 lung
OVCAR-3 ovarian = system: OVCAR-3 ovarian
OVCAR-4 ovarian = system: OVCAR-4 ovarian
OVCAR-5 ovarian = system: OVCAR-5 ovarian
OVCAR-8 ovarian = system: OVCAR-8 ovarian
RPMI-8226 leukemia = system: RPMI-8226 leukemia
RXF 393 renal = system: RXF 393 renal
RXF-631 renal = system: RXF-631 renal
SF-268 CNS = system: SF-268 CNS
SF-295 CNS = system: SF-295 CNS
SF-539 CNS = system: SF-539 CNS
SK-MEL-2 melanoma = system: SK-MEL-2 melanoma
SK-MEL-28 melanoma = system: SK-MEL-28 melanoma
SK-MEL-5 melanoma = system: SK-MEL-5 melanoma
SN12C renal = system: SN12C renal
SNB-19 CNS = system: SNB-19 CNS
SNB-75 CNS = system: SNB-75 CNS
SNB-78 CNS = system: SNB-78 CNS
SR leukemia = system: SR leukemia
SW-620 colon = system: SW-620 colon
TK-10 renal = system: TK-10 renal
U251 CNS = system: U251 CNS
UACC-257 melanoma = system: UACC-257 melanoma
UACC-62 melanoma = system: UACC-62 melanoma
UO-31 renal = system: UO-31 renal
XF 498 CNS = system: XF 498 CNS
HOP-62 NSCLC = system: HOP-62 NSCLC
KM12 colon = system: KM12 colon
SK-OV-3 ovarian = system: SK-OV-3 ovarian
COLO 205 colon = system: COLO 205 colon
HOP-18 NSCLC = system: HOP-18 NSCLC

Cc1ccccc1NC(=O)CC1C(=O)Nc2ccccc2S1=O (configuration not stated)
TGI (786-0 renal): > 100 µM | TGI (A498 renal): > 100 µM | TGI (A549 NSCLC): > 100 µM | TGI (ACHN renal): > 100 µM | TGI (CAKI-1 renal): > 100 µM | TGI (CCRF-CEM leukemia): > 100 µM | TGI (DLD-1 colon): > 100 µM | TGI (DMS 114 small cell lung): > 100 µM | TGI (DMS 273 small cell lung): > 100 µM | TGI (EKVX NSCLC): > 100 µM | TGI (HCC-2998 colon): > 100 µM | TGI (HCT-116 colon): > 100 µM | TGI (HCT-15 colon): > 100 µM | TGI (HL-60(TB) leukemia): > 100 µM | TGI (HOP-92 NSCLC): > 100 µM | TGI (HT29 colon): > 100 µM | TGI (IGROV1 ovarian): > 100 µM | TGI (K-562 leukemia): > 100 µM | TGI (KM20L2 colon): > 100 µM | TGI (LOX IMVI melanoma): > 100 µM | TGI (LXFL 529 NSCLC): > 100 µM | TGI (M14 melanoma): > 100 µM | TGI (M19-MEL melanoma): > 100 µM | TGI (MALME-3M melanoma): > 100 µM | TGI (MOLT-4 leukemia): > 100 µM | TGI (NCI-H226 lung): > 100 µM | TGI (NCI-H23 lung): > 100 µM | TGI (NCI-H460 lung): > 100 µM | TGI (NCI-H522 lung): > 100 µM | TGI (OVCAR-3 ovarian): > 100 µM | TGI (OVCAR-4 ovarian): > 100 µM | TGI (OVCAR-5 ovarian): > 100 µM | TGI (OVCAR-8 ovarian): > 100 µM | TGI (RPMI-8226 leukemia): > 100 µM | TGI (RXF 393 renal): 51.8 µM | TGI (RXF-631 renal): > 100 µM | TGI (SF-268 CNS): > 100 µM | TGI (SF-295 CNS): > 100 µM | TGI (SF-539 CNS): 94.3 µM | TGI (SK-MEL-2 melanoma): > 100 µM | TGI (SK-MEL-28 melanoma): > 100 µM | TGI (SK-MEL-5 melanoma): > 100 µM | TGI (SN12C renal): > 100 µM | TGI (SNB-19 CNS): > 100 µM | TGI (SNB-75 CNS): 65.9 µM | TGI (SNB-78 CNS): > 100 µM | TGI (SR leukemia): > 100 µM | TGI (SW-620 colon): > 100 µM | TGI (TK-10 renal): > 100 µM | TGI (U251 CNS): > 100 µM | TGI (UACC-257 melanoma): > 100 µM | TGI (UACC-62 melanoma): > 100 µM | TGI (UO-31 renal): > 100 µM | TGI (XF 498 CNS): > 100 µM

CCCC(=O)OCC1OC2OC(C)(C)OC2C2OC(C)(C)OC12 (configuration not stated)
TGI (A498 renal): > 100 µM | TGI (A549 NSCLC): > 100 µM | TGI (ACHN renal): > 100 µM | TGI (CCRF-CEM leukemia): > 100 µM | TGI (DMS 273 small cell lung): > 100 µM | TGI (EKVX NSCLC): > 100 µM | TGI (HCT-116 colon): > 100 µM | TGI (HL-60(TB) leukemia): > 100 µM | TGI (HOP-62 NSCLC): > 100 µM | TGI (HOP-92 NSCLC): > 100 µM | TGI (HT29 colon): > 100 µM | TGI (IGROV1 ovarian): > 100 µM | TGI (KM12 colon): > 100 µM | TGI (M14 melanoma): > 100 µM | TGI (M19-MEL melanoma): > 100 µM | TGI (MOLT-4 leukemia): > 100 µM | TGI (NCI-H226 lung): > 100 µM | TGI (NCI-H23 lung): > 100 µM | TGI (NCI-H460 lung): > 100 µM | TGI (NCI-H522 lung): > 100 µM | TGI (OVCAR-5 ovarian): > 100 µM | TGI (OVCAR-8 ovarian): > 100 µM | TGI (RXF 393 renal): > 100 µM | TGI (RXF-631 renal): > 100 µM | TGI (SF-295 CNS): > 100 µM | TGI (SK-MEL-28 melanoma): > 100 µM | TGI (SK-OV-3 ovarian): > 100 µM | TGI (SNB-19 CNS): > 100 µM | TGI (SNB-78 CNS): > 100 µM | TGI (SR leukemia): > 100 µM | TGI (TK-10 renal): 61.1 µM | TGI (U251 CNS): > 100 µM | TGI (UACC-257 melanoma): > 100 µM | TGI (UO-31 renal): > 100 µM

CC(Oc1cc2oc(=O)cc(-c3ccccc3)c2cc1Cl)C(=O)O (configuration not stated)
TGI (786-0 renal): > 100 µM | TGI (A498 renal): > 100 µM | TGI (A549 NSCLC): > 100 µM | TGI (ACHN renal): > 100 µM | TGI (CAKI-1 renal): > 100 µM | TGI (CCRF-CEM leukemia): > 100 µM | TGI (COLO 205 colon): > 100 µM | TGI (DLD-1 colon): > 100 µM | TGI (DMS 114 small cell lung): > 100 µM | TGI (EKVX NSCLC): > 100 µM | TGI (HCC-2998 colon): > 100 µM | TGI (HCT-116 colon): > 100 µM | TGI (HL-60(TB) leukemia): > 100 µM | TGI (HOP-18 NSCLC): > 100 µM | TGI (HOP-62 NSCLC): > 100 µM | TGI (HOP-92 NSCLC): > 100 µM | TGI (HT29 colon): > 100 µM | TGI (IGROV1 ovarian): > 100 µM | TGI (K-562 leukemia): > 100 µM | TGI (KM12 colon): > 100 µM | TGI (KM20L2 colon): > 100 µM | TGI (LOX IMVI melanoma): > 100 µM | TGI (LXFL 529 NSCLC): > 100 µM | TGI (M14 melanoma): > 100 µM | TGI (M19-MEL melanoma): > 100 µM | TGI (MALME-3M melanoma): > 100 µM | TGI (MOLT-4 leukemia): > 100 µM | TGI (NCI-H226 lung): > 100 µM | TGI (NCI-H23 lung): > 100 µM | TGI (NCI-H460 lung): > 100 µM | TGI (NCI-H522 lung): > 100 µM | TGI (OVCAR-3 ovarian): > 100 µM | TGI (OVCAR-4 ovarian): > 100 µM | TGI (OVCAR-8 ovarian): > 100 µM | TGI (RXF 393 renal): > 100 µM | TGI (RXF-631 renal): > 100 µM | TGI (SF-268 CNS): > 100 µM | TGI (SF-295 CNS): > 100 µM | TGI (SF-539 CNS): > 100 µM | TGI (SK-MEL-28 melanoma): > 100 µM | TGI (SK-MEL-5 melanoma): > 100 µM | TGI (SK-OV-3 ovarian): > 100 µM | TGI (SN12C renal): > 100 µM | TGI (SNB-19 CNS): > 100 µM | TGI (SNB-75 CNS): > 100 µM | TGI (SNB-78 CNS): > 100 µM | TGI (SR leukemia): > 100 µM | TGI (SW-620 colon): > 100 µM | TGI (TK-10 renal): > 100 µM | TGI (U251 CNS): > 100 µM | TGI (UACC-257 melanoma): > 100 µM | TGI (UACC-62 melanoma): > 100 µM | TGI (UO-31 renal): > 100 µM | TGI (XF 498 CNS): > 100 µM
